Reference: ChEMBL document CHEMBL4385643, “Design of a brain-penetrant CDK4/6 inhibitor for glioblastoma” (Bioorg Med Chem Lett, 2019)

Columns and labels:
[1] = biological target: SRSF protein kinase 3 (Homo sapiens) (UniProt Q9UPE1); experiment: Inhibition of recombinant full length human GST-tagged MSSK1 expressed in baculovirus expression system at 0.1 uM using serine/threonine-18 peptide as substrate incubated for 60 mins by Z'-LYTE assay relative to control
[2] = biological target: Protein kinase C alpha type (Homo sapiens) (UniProt P17252); experiment: Inhibition of recombinant human GST-tagged PKCalpha expressed in insect expression system at 0.1 uM using serine/threonine-7 peptide as substrate incubated for 60 mins by Z'-LYTE assay relative to control
Homo sapiens = organism: Homo sapiens; experiment: Inhibition of recombinant human His-tagged PKA catalytic domain (1 to 351 residues) expressed in Escherichia coli expression system at 0.1 uM using serine/threonine-1 peptide as substrate incubated for 60 mins by Z'-LYTE assay relative to control
[3] = biological target: Serine/threonine-protein kinase PAK 3 (Homo sapiens) (UniProt O75914); experiment: Inhibition of recombinant full length human His-tagged PAK3 expressed in baculovirus expression system at 0.1 uM using serine/threonine-20 peptide as substrate incubated for 60 mins by Z'-LYTE assay relative to control
[4] = biological target: Death-associated protein kinase 3 (Homo sapiens) (UniProt O43293); experiment: Inhibition of recombinant full length human GST-tagged ZIPK expressed in baculovirus expression system at 0.1 uM using serine/threonine-13 peptide as substrate incubated for 60 mins by Z'-LYTE assay relative to control
[5] = biological target: Protein kinase C delta type (Homo sapiens) (UniProt Q05655); experiment: Inhibition of recombinant full length human GST-tagged PKCdelta expressed in insect expression system at 0.1 uM using serine/threonine-7 peptide as substrate incubated for 60 mins by Z'-LYTE assay relative to control
[6] = biological target: LIM domain kinase 1 (Homo sapiens) (UniProt P53667); experiment: Inhibition of tracer 236 binding to recombinant human His-tagged LIMK1 catalytic domain (285 to 638 residues) expressed in baculovirus expression system at 0.1 uM measured after 60 mins by Lanthascreen assay relative to control
Sequence of LIM domain kinase 1 (Homo sapiens) (P53667 whole entry, looked up, the tested form may be a part, canonical isoform): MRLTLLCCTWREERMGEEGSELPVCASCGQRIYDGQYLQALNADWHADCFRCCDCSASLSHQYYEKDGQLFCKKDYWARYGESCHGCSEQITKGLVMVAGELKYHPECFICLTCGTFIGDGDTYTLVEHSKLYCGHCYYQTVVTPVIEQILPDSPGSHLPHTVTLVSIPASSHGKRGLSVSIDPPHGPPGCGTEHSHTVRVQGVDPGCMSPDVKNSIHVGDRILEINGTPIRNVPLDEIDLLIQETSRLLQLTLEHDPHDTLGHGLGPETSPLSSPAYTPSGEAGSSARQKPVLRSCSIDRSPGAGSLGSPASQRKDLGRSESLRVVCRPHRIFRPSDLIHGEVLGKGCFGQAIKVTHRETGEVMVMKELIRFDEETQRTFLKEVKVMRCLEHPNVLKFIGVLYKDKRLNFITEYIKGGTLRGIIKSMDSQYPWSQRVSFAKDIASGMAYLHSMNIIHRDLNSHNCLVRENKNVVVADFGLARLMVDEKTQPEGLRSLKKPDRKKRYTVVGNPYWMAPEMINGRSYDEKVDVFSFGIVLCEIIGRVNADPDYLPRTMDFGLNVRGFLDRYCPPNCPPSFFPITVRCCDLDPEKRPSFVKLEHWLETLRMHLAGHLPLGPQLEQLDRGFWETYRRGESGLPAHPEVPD

[7] = biological target: Casein kinase I isoform gamma-2 (Homo sapiens) (UniProt P78368); experiment: Inhibition of recombinant full length human His-tagged CK1 gamma 2 expressed in baculovirus expression system at 0.1 uM using serine/threonine-5 peptide as substrate incubated for 60 mins by Z'-LYTE assay relative to control
[8] = biological target: Vascular endothelial growth factor receptor 2 (Homo sapiens) (UniProt P35968); experiment: Inhibition of recombinant human His-tagged KDR (789 to 1356 residues) expressed in baculovirus expression system at 0.1 uM using tyrosine-1 peptide as substrate incubated for 60 mins by Z'-LYTE assay relative to control
[9] = biological target: 3-phosphoinositide-dependent protein kinase 1 (Homo sapiens) (UniProt O15530); experiment: Inhibition of recombinant human His-tagged PDK1 expressed in baculovirus expression system at 0.1 uM using serine/threonine-7 peptide as substrate incubated for 60 mins by Z'-LYTE assay relative to control
[10] = biological target: Ribosomal protein S6 kinase alpha-2 (Homo sapiens) (UniProt Q15349); experiment: Inhibition of recombinant full length human GST-tagged RSK3 expressed in insect expression system at 0.1 uM using serine/threonine-6 peptide as substrate incubated for 60 mins by Z'-LYTE assay relative to control
[11] = biological target: Myosin light chain kinase, smooth muscle (Homo sapiens) (UniProt Q15746); experiment: Inhibition of tracer 236 binding to recombinant full length human GST-tagged MYLK expressed in baculovirus expression system at 0.1 uM measured after 60 mins by Lanthascreen assay relative to control
[12] = biological target: Megakaryocyte-associated tyrosine-protein kinase (Homo sapiens) (UniProt P42679); experiment: Inhibition of recombinant full length human His-tagged HYL expressed in Escherichia coli expression system at 0.1 uM using tyrosine-1 peptide as substrate incubated for 60 mins by Z'-LYTE assay relative to control
[13] = biological target: Ribosomal protein S6 kinase beta-1 (Homo sapiens) (UniProt P23443); experiment: Inhibition of recombinant human GST-tagged p70S6K catalytic domain (1 to 421 residues) expressed in baculovirus expression system at 0.1 uM using serine/threonine-7 peptide as substrate incubated for 60 mins by Z'-LYTE assay relative to control
[14] = biological target: Rho-associated protein kinase 2 (Homo sapiens) (UniProt O75116); experiment: Inhibition of recombinant human GST-tagged ROCK2 catalytic domain (1 to 552 residues) expressed in baculovirus expression system at 0.1 uM using serine/threonine-13 peptide as substrate incubated for 60 mins by Z'-LYTE assay relative to control
Sequence of Rho-associated protein kinase 2 (Homo sapiens) (O75116 whole entry, looked up, the tested form may be a part): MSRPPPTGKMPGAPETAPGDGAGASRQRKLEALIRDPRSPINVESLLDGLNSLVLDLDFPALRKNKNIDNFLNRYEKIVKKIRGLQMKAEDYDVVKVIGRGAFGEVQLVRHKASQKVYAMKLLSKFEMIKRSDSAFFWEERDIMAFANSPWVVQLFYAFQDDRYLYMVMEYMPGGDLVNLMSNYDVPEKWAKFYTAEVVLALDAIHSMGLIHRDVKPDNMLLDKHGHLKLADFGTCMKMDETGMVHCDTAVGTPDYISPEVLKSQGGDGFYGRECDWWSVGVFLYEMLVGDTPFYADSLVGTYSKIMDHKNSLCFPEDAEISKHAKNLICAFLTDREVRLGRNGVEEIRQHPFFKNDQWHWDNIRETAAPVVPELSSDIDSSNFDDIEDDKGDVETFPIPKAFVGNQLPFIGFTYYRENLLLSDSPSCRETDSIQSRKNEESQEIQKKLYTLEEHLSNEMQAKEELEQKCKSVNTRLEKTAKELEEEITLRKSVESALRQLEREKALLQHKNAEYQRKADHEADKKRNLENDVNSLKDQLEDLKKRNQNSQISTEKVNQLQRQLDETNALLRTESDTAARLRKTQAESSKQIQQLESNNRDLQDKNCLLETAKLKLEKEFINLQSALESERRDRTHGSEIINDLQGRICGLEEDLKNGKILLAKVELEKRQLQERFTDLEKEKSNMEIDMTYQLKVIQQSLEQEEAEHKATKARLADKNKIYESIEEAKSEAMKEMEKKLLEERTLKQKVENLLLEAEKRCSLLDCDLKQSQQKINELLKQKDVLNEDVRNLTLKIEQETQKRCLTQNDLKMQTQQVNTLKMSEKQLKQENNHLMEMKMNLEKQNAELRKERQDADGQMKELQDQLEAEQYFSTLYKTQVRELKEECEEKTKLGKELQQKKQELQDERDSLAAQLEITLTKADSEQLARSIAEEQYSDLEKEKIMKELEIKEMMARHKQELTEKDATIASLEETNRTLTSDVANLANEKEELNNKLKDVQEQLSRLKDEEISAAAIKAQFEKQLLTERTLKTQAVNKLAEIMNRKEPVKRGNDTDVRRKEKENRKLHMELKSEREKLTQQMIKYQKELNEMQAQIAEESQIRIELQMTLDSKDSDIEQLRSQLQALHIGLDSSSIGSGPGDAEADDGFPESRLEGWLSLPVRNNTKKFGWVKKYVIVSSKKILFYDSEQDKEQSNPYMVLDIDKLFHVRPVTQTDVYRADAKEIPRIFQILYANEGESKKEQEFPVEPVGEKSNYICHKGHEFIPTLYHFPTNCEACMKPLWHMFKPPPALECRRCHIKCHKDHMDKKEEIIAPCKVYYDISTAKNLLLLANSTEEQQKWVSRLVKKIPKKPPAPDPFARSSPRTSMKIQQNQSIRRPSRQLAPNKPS

[15] = biological target: PAS domain-containing serine/threonine-protein kinase (Homo sapiens) (UniProt Q96RG2); experiment: Inhibition of recombinant human GST-tagged PASK catalytic domain (879 to 1323 residues) expressed in baculovirus expression system at 0.1 uM using serine/threonine-7 peptide as substrate incubated for 60 mins by Z'-LYTE assay relative to control
[16] = biological target: Leucine-rich repeat serine/threonine-protein kinase 2 (Homo sapiens) (UniProt Q5S007); experiment: Inhibition of recombinant human GST-tagged LRRK2 catalytic domain (970 to 2527 amino acids) expressed in baculovirus expression system at 0.1 uM using ERM (LRRKtide) peptide as substrate incubated for 60 mins by Adapta assay relative to control
Sequence of Leucine-rich repeat serine/threonine-protein kinase 2 (Homo sapiens) (Q5S007 whole entry, the tested form may be a part): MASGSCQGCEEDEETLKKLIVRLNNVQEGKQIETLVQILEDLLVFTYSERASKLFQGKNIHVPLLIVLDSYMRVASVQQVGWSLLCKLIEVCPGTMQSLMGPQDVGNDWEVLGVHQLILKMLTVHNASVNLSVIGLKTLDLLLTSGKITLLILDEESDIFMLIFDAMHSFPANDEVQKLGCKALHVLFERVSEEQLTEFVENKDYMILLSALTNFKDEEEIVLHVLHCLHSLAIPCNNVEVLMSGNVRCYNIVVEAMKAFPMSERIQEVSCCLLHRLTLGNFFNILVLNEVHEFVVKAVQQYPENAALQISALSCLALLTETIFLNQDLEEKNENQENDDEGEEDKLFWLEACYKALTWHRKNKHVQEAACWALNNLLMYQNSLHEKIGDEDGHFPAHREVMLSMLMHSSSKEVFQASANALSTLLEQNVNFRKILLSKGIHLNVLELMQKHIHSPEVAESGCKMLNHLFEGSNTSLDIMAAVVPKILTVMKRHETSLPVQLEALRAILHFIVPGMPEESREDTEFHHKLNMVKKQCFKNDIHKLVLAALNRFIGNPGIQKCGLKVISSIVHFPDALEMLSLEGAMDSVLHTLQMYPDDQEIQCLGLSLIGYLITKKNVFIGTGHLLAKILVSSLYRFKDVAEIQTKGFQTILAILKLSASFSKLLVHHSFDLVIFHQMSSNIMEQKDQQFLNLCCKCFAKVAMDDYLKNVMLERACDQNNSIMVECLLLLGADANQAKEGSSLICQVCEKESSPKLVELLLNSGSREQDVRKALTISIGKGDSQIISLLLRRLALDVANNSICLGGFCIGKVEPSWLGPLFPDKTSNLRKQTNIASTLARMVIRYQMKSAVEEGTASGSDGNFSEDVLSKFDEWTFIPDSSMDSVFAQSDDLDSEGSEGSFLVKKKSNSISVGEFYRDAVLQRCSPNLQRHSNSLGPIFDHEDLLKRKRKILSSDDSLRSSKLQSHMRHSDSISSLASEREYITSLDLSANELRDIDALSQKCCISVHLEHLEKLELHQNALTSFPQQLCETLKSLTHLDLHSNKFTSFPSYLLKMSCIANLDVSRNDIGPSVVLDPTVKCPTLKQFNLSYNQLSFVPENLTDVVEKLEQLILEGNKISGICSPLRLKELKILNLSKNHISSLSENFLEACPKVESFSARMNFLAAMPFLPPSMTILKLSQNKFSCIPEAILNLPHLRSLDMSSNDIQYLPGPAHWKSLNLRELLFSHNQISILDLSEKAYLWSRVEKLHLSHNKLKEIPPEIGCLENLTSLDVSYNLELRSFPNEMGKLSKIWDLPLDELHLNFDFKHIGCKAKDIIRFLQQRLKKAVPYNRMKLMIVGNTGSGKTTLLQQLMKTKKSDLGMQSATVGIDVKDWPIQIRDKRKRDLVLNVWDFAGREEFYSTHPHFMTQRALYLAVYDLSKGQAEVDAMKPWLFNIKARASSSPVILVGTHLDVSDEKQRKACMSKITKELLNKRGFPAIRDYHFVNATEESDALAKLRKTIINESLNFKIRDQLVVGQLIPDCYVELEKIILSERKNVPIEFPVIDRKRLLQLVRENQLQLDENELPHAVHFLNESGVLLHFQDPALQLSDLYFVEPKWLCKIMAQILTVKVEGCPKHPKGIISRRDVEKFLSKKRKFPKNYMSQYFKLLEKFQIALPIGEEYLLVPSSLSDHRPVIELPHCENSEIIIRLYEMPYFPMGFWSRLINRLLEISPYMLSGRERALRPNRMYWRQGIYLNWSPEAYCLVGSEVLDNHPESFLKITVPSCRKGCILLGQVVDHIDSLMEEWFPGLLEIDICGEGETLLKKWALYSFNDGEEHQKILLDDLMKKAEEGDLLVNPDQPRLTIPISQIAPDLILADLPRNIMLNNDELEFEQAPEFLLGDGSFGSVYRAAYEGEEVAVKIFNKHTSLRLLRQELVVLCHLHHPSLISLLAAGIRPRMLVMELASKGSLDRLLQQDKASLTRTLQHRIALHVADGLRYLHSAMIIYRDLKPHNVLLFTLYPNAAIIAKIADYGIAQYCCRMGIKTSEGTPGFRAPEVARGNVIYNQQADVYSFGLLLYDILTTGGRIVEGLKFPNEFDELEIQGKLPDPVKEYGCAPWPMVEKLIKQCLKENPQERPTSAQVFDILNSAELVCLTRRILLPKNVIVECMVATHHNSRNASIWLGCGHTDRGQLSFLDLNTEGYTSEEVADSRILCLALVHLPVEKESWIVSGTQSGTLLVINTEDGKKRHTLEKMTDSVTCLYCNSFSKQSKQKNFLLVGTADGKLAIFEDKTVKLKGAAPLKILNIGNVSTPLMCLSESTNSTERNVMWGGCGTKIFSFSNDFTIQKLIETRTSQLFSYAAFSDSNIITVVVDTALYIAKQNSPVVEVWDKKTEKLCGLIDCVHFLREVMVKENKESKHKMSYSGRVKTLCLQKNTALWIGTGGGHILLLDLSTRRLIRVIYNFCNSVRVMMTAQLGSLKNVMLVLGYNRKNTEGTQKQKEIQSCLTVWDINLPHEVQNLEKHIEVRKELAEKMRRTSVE

[17] = biological target: CDK18/Cyclin Y (Homo sapiens) (UniProt Q07002+Q8ND76); experiment: Inhibition of recombinant full length human GST-tagged CDK18/Cyclin Y (2 to end amino acids) expressed in insect expression system at 0.1 uM using serine/threonine-12 peptide as substrate incubated for 60 mins by Z'-LYTE assay relative to control
[18] = biological target: Serine/threonine-protein kinase D1 (Homo sapiens) (UniProt Q15139); experiment: Inhibition of recombinant full length human GST-tagged PKD1 expressed in baculovirus expression system at 0.1 uM using serine/threonine-17 peptide as substrate incubated for 60 mins by Z'-LYTE assay relative to control
[19] = biological target: Macrophage-stimulating protein receptor (Homo sapiens) (UniProt Q04912); experiment: Inhibition of recombinant human GST-tagged RON catalytic domain (983 to 1400 residues) expressed in baculovirus expression system at 0.1 uM using tyrosine-6 peptide as substrate incubated for 60 mins by Z'-LYTE assay relative to control
[20] = tested on: RAF proto-oncogene serine/threonine-protein kinase (Homo sapiens), P04049 [Y340D,Y341D]; experiment: Inhibition of recombinant human GST-tagged RAF1 Y340D Y341D mutant catalytic domain (306 to 648 residues) expressed in baculovirus expression system at 0.1 uM using serine/threonine-3 peptide as substrate incubated for 60 mins by Z'-LYTE assay relative to control
[21] = biological target: Serine/threonine-protein kinase 16 (Homo sapiens) (UniProt O75716); experiment: Inhibition of tracer 236 binding to recombinant full length human His-tagged STK16 expressed in baculovirus expression system at 0.1 uM measured after 60 mins by Lanthascreen assay relative to control
[22] = biological target: Serine/threonine-protein kinase Sgk1 (Homo sapiens) (UniProt O00141); experiment: Inhibition of recombinant human GST-tagged SGK1 catalytic domain (60 to 431 residues) expressed in baculovirus expression system at 0.1 uM using serine/threonine-6 peptide as substrate incubated for 60 mins by Z'-LYTE assay relative to control

Sequence of SRSF protein kinase 3 (Homo sapiens) (Q9UPE1 whole entry): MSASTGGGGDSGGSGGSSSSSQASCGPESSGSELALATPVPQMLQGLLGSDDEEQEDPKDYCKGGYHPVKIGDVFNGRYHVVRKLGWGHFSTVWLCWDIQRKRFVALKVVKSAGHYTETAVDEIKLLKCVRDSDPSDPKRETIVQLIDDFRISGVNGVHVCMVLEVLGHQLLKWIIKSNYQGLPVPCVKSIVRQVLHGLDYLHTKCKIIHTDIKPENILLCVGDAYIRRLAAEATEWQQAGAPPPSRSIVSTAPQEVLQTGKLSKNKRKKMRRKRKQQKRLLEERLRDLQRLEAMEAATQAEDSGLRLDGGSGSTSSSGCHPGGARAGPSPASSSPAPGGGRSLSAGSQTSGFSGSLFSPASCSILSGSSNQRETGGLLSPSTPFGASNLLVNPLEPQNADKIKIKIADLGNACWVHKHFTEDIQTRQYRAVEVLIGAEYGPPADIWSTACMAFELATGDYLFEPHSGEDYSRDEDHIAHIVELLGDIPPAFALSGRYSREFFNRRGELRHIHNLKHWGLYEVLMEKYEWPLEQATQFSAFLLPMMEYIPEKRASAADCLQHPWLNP

SMILES	inhibition [1] [%]	inhibition [2] [%]	inhibition (Homo sapiens) [%]	inhibition [3] [%]	inhibition [4] [%]	inhibition [5] [%]	inhibition [6] [%]	inhibition [7] [%]	inhibition [8] [%]	inhibition [9] [%]	inhibition [10] [%]	inhibition [11] [%]	inhibition [12] [%]	inhibition [13] [%]	inhibition [14] [%]	inhibition [15] [%]	inhibition [16] [%]	inhibition [17] [%]	inhibition [18] [%]	inhibition [19] [%]	further results
CCN1CC2(C1)CN(c1ccc(Nc3ncc(F)c(-c4cnn5c4[C@H](C)CCCC5)n3)nc1)C2	9	33	4	8	6	23.5	-2	3.5	17.5	8.5	58.5	5.5	-0.5	6	7	14.5	97.5	30.5	98.5	7	inhibition [20]: -0.5%; inhibition [21]: 29.5%; inhibition [22]: 72.5%
CCN1CCN(Cc2ccc(Nc3ncc(F)c(-c4cc(F)c5nc(C)n(C(C)C)c5c4)n3)nc2)CC1 [ABEMACICLIB]	3.5	77.5	5	11.4	54.5	48.5	3.7	7	4.5	1	19.5	14.7	0	5	18.5	73	74.6	29	62.5	10.5	inhibition [20]: 0%; inhibition [21]: 91.5%; inhibition [22]: 64%
